Values joined by “and” are separate entries in the source; they are usually repeats but may differ in a detail not shown here. Equal values may be shown once.
Experiments:
[1] = Tolerability in mice: clinical signs of toxicity, body weight, clinical scoring; details: mouse, in vivo
Description: (§1) Mice were treated with a mixture comprising 93% mono(N^γ-bis-sulfomethyl) Polymyxin E1 or CMS for 5 days and were monitored for clinical signs of toxicity and urine concentrations of KIM-1. […] The normal range of KIM-1 in mouse urine, as stated in the ELISA kit instruction, is 456-8048 pg/ml.
(§2) The mixtures were received as dry powder and were dissolved in the vials in sterile saline to the concentration stated in table 1, immediately prior to injection.
(§3) Once a day for 5 days, mice were treated subcutaneously in the neck region with 0.2 ml corresponding to the doses stated in Table 1. The dosing was based on a mean weight of 28 g.
All the tested mixtures were well tolerated by mice as determined by body weight and clinical scoring.

[2] = tested on: KIM-1 (kidney injury molecule-1); experiment: Nephrotoxicity in mice, urinary KIM-1 by ELISA; format: in vivo; details: 80 mg/kg subcutaneously once a day for 5 days; individual mice
Description: Nephrotoxicity was measured using KIM-1 (kidney injury molecule-1) as a biomarker of acute tubular necrosis.
as §1, §2, §3
Urine samples were collected at 24 hrs after the 2nd dosing and 4 hrs after the 5th dosing. Samples were stored at −80° C. until analysed for KIM-1 concentrations
Urine samples were thawed, centrifuged for 5 min at 2000 g and diluted ×50 prior to performing the ELISA according the instruction in the Quantikine ELISA mouse TIM-1/KIM-1/HAVCR Immunoassay kit.

[3] = tested on: Pseudomonas aeruginosa (strain PAX11045); experiment: Mouse model with pulmonary infection of Pseudomonas aeruginosa; format: in vivo; parameters: key to Clinical score at T = 19 / Clinical score at T = 22: 0: healthy; 1: minor clinical signs of infection and inflammation like piloerection in the skin, distress and social withdrawal; 2: moderate signs of infection like changed body position, changes in pattern of movement, lack of curiosity or changed activity.; 3: severe signs of infection like stiff movements, forced ventilation,; 4: severe pain, mouse was sacrificed immediately to minimize suffering; 5: The mouse was dead; details: dose 10 mg/kg, peritoneal
Description: A mouse model with pulmonary infections of Pseudomonas aeruginosa (strain PAX11045) were treated with peritoneal administration of Polymyxin E1, CMS E1 and mono bis-sulfomethylated Polymyxin E1. CFU is the calculated number of colony forming units in the lung tissue after 22 hours except for the non-treatment group of mice.

## Colistimethate sodium [CMS]
[1]
  clinical signs of toxicity: no clinical signs of toxicity

## Gentamicin
[2]
  Urinary KIM-1 concentrations after 5 doses: 12850 pg/mL and 5900 pg/mL and 5750 pg/mL

## Polymyxin E1 [Polymyxin-E1]
[3]; individual mice
  Clinical score at T = 19: 3 (6×) and 2
  Clinical score at T = 22: 4 (2×) and 2 and 3 (4×)
[3]; lung tissue after 22 hours
  mean log10 CFU: 4.43 log10 CFU
[3]; lung tissue after 22 hours, individual mice, 10 mg/kg
  log10 CFU lung: 5.65 log10 CFU and 4.08 log10 CFU and 6.06 log10 CFU and 4.05 log10 CFU and 3.78 log10 CFU and 3.70 log10 CFU and 3.72 log10 CFU

Reference: patent US10711040B2, “Low substituted polymyxins and compositions thereof” (priority 2014, dated 2020)
